# Test results taken from patent publication US20240002429A1, “PRODRUG OF 5a-HYDROXY-6ß-[2-(1H-IMIDAZOL-4-YL)ETHYLAMINO]CHOLESTAN-3ß-OL AND PHARMACEUTICAL COMPOSITIONS COMPRISING SAME FOR USE IN THE TREATMENT OF CANCER” (priority 2020, published 2024).
# Target: T1, cholesterol epoxide hydrolase (ChEH) (Homo sapiens, UniProt Q15125)
# T1 construct: endogenous in cells; host or cells: MCF-7
# Assay: Activity of cholesterol epoxide hydrolase (ChEH) in MCF-7 cells, [14C]5,6α-EC metabolization by TLC
# Type: cell-based
# Conditions: MCF-7, 1 μM, 24 h, [14C]5,6α-EC 0.6 μM
# From the text: The compounds 5,6α-epoxycholesterol (5,6α-EC) and 5,6β-epoxycholesterol (5,6β-EC) are oxysterols involved in the anticancer pharmacology of tamoxifen, a widely used antitumor drug. They are both metabolized in cholestan-3β,5α,6β-triol (CT) by the enzyme cholesterol-5,6-epoxide hydrolase (ChEH), and CT is metabolized by the enzyme HSD11B2 (11β-hydroxysteroid dehydrogenase 2) to 6-oxo-cholestan-3β,5α-diol (OCDO), an oncosterone tumor promoter.
# MCF-7 cells are in a cell culture medium identical to example 20 and are seeded in 6-well plates at 150000 cells per well with 3 wells per treatment condition. 24 h after seeding, the MCF-7 cells are treated with [^14C]5,6α-EC (stock solution 1000×: 0.6 mM; 20 μCi/μmol; final concentration 0.6 μM) alone or in combination with tamoxifen (tam). Tamoxifen is used as positive control of the study compounds. The treatment with the compound according to the invention is carried out at a concentration of 1 μM.
# After 24 hours of treatment, the media are collected and lipid extracts are prepared from the cell pellets by extraction with 100 μL of chloroform, 400 μL of methanol and 300 μL of water. The lipid extracts are analyzed by thin-layer chromatography (TLC) using ethyl acetate (EtOAc) as eluent. The analysis is carried out using a plate reader and then by autoradiography.
# T1 sequence (Q15125 whole entry): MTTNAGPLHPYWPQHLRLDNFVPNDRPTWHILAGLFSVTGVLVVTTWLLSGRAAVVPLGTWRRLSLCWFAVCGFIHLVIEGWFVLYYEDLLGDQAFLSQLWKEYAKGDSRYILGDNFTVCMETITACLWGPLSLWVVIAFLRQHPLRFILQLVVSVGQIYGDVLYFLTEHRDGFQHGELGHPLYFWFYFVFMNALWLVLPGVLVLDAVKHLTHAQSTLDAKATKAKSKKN
structure (smiles),measurement,value
CC/C(=C(\c1ccccc1)c1ccc(OCCN(C)C)cc1)c1ccccc1 [tamoxifen],inhibition of ChEH activity,total inhibition
